From patent publication US8952157B2, “Apoptosis-inducing agents for the treatment of cancer and immune and autoimmune diseases” (AbbVie Inc., priority 2008, dated 2015) come the findings set out here.

The assay has as its target GST-Bcl-2 (Homo sapiens (Human), UniProt P10415). Nature of the assay: Time Resolved-Fluorescence Resonance Energy Transfer (TR-FRET) Bcl-2 binding assay. Conditions: GST-Bcl-2 1 nM, F-Bak peptide probe 100 nM, Tb-anti-GST antibody 1 nM; Ki by Wang's equation. The gist of the method:
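Competition TR-FRET: GST-Bcl-2 with fluorescent Bak peptide probe and Tb-anti-GST antibody, compounds serially diluted from 50 μM (2× start, 10% DMSO).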
For orientation: Time-resolved FRET reads energy transfer from a long-lived donor to a nearby acceptor.

One may read the Ki as a measure of affinity in units of concentration, obtained from inhibition or displacement. Low values mean a stronger hold on the target, high ones a looser hold on the target.

GST-Bcl-2, sequence (P10415 whole entry): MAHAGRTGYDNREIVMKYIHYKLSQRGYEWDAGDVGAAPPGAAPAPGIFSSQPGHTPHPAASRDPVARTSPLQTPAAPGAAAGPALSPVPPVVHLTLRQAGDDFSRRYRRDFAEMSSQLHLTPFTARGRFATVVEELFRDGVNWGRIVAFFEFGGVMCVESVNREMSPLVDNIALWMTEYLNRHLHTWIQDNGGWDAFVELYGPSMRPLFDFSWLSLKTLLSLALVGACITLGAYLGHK

Compound `CC1(C)CCC(CN2CCN(c3ccc(C(=O)NS(=O)(=O)c4cnc(OC[C@@H]5CCN(C(CF)CF)C5)c(Cl)c4)c(Oc4cnc(N)c(Cl)c4)c3)CC2)=C(c2ccc(Cl)cc2)C1` [Example 399, 2-[(6-amino-5-chloropyridin-3-yl)oxy]-N-{[5-chloro-6-({(3R)-1-[2-fluoro-1-(fluoromethyl)ethyl]pyrrolidin-3-yl}methoxy)pyridin-3-yl]sulfonyl}-4-(4-{[2-(4-chlorophenyl)-4,4-dimethylcyclohex-1-en-1-yl]methyl}piperazin-1-yl)benzamide] gave a Ki of less than 0.01 nM.
The same measure for `CN(C)CCOc1cccc(Oc2cc(N3CCN(Cc4ccccc4-c4ccc(Cl)cc4)CC3)ccc2C(=O)NS(=O)(=O)c2ccc(NCC3CCOCC3)c([N+](=O)[O-])c2)c1` [Example 39, 4-(4-((4′-chloro-1,1′-biphenyl-2-yl)methyl)piperazin-1-yl)-2-(3-(2-(dimethylamino)ethoxy)phenoxy)-N-((3-nitro-4-((tetrahydro-2H-pyran-4-ylmethyl)amino)phenyl)sulfonyl)benzamide]: 0.019 nM; for `CN1CCC(O)(CNc2ccc(S(=O)(=O)NC(=O)c3ccc(N4CCN(CC5=C(c6ccc(Cl)cc6)CC(C)(C)CC5)CC4)cc3Oc3ccccc3Cl)cc2[N+](=O)[O-])CC1` [Example 192, 2-(2-chlorophenoxy)-4-(4-{[2-(4-chlorophenyl)-4,4-dimethylcyclohex-1-en-1-yl]methyl}piperazin-1-yl)-N-[(4-{[(4-hydroxy-1-methylpiperidin-4-yl)methyl]amino}-3-nitrophenyl)sulfonyl]benzamide]: 0.024 nM.
In the case of `CC1(C)CCC(CN2CCN(c3ccc(C(=O)NS(=O)(=O)c4cnc(OCC5CCOCC5)c(C#N)c4)c(Oc4cc5cc[nH]c5cc4F)c3)CC2)=C(c2ccc(Cl)cc2)C1` [Example 301, 4-(4-{[2-(4-chlorophenyl)-4,4-dimethylcyclohex-1-en-1-yl]methyl}piperazin-1-yl)-N-{[5-cyano-6-(tetrahydro-2H-pyran-4-ylmethoxy)pyridin-3-yl]sulfonyl}-2-[(6-fluoro-1H-indol-5-yl)oxy]benzamide] it was 0.113 nM.
The same measure for `CN(C)CCCNc1ccc(S(=O)(=O)NC(=O)c2ccc(N3CCN(CC4=C(c5ccc(Cl)cc5)CC(C)(C)CC4)CC3)cc2Oc2ccc3c(ccn3C(=O)OC(C)(C)C)c2)cc1[N+](=O)[O-]` [Example 231, tert-butyl 5-[5-(4-{[2-(4-chlorophenyl)-4,4-dimethylcyclohex-1-en-1-yl]methyl}piperazin-1-yl)-2-({[(4-{[3-(dimethylamino)propyl]amino}-3-nitrophenyl)sulfonyl]amino}carbonyl)phenoxy]-1H-indole-1-carboxylate]: 36.9 nM.
In the case of `COCCNc1ccc(S(=O)(=O)NC(=O)c2ccc(N3CCN(CC4=C(c5ccc(Cl)cc5)CC(C)(C)CC4)CC3)cc2Oc2cccc3c2CC(=O)N3)cc1[N+](=O)[O-]` [Example 321, 4-(4-{[2-(4-chlorophenyl)-4,4-dimethylcyclohex-1-en-1-yl]methyl}piperazin-1-yl)-N-({4-[(2-methoxyethyl)amino]-3-nitrophenyl}sulfonyl)-2-[(2-oxo-2,3-dihydro-1H-indol-4-yl)oxy]benzamide], the inhibition constant Ki is 0.029 nM. Compared with the last compound, the Ki is about 1300-fold lower.
The same measure for `CN(C)CCCc1c[nH]c2cccc(Oc3cc(N4CCN(CC5=C(c6ccc(Cl)cc6)CC(C)(C)CC5)CC4)ccc3C(=O)NS(=O)(=O)c3ccc(NCC4CCOCC4)c([N+](=O)[O-])c3)c12` [Example 339, 4-(4-{[2-(4-chlorophenyl)-4,4-dimethylcyclohex-1-en-1-yl]methyl}piperazin-1-yl)-2-({3-[3-(dimethylamino)propyl]-1H-indol-4-yl}oxy)-N-({3-nitro-4-[(tetrahydro-2H-pyran-4-ylmethyl)amino]phenyl}sulfonyl)benzamide]: 0.057 nM; for `CC1(C)CCC(CN2CCN(c3ccc(C(=O)NS(=O)(=O)c4cnc(OCC5COCCO5)c(Br)c4)c(Oc4cc5cc[nH]c5cc4F)c3)CC2)=C(c2ccc(Cl)cc2)C1` (stereo not shown) [Example 306, N-{[5-bromo-6-(1,4-dioxan-2-ylmethoxy)pyridin-3-yl]sulfonyl}-4-(4-{[2-(4-chlorophenyl)-4,4-dimethylcyclohex-1-en-1-yl]methyl}piperazin-1-yl)-2-[(6-fluoro-1H-indol-5-yl)oxy]benzamide]: 0.671 nM; for `O=C(NS(=O)(=O)c1ccc(NCC2CCOCC2)c([N+](=O)[O-])c1)c1ccc(N2CCN(Cc3ccccc3-c3ccc(Cl)cc3)CC2)cc1Oc1cccc(OCc2ccccc2)c1` [Example 71, 2-(3-(benzyloxy)phenoxy)-4-(4-((4′-chloro-1,1′-biphenyl-2-yl)methyl)piperazin-1-yl)-N-((3-nitro-4-((tetrahydro-2H-pyran-4-ylmethyl)amino)phenyl)sulfonyl)benzamide]: 31.6 nM.
For `CC(c1ccccc1-c1ccc(Cl)cc1)N1CCN(c2ccc(C(=O)NS(=O)(=O)c3ccc(NCC4CCOCC4)c([N+](=O)[O-])c3)c(Oc3ccccc3Cl)c2)CC1` (stereo not shown) [Example 110, 4-{4-[1-(4′-chloro-1,1′-biphenyl-2-yl)ethyl]piperazin-1-yl}-2-(2-chlorophenoxy)-N-({3-nitro-4-[(tetrahydro-2H-pyran-4-ylmethyl)amino]phenyl}sulfonyl)benzamide], the affinity, expressed as Ki, was 0.039 nM. Against the preceding compound, the Ki is about 810-fold lower.
Compound `CC1(C)CCC(CN2CCN(c3ccc(C(=O)NS(=O)(=O)c4ccc(NC5CCN(CC6CC6)CC5)c([N+](=O)[O-])c4)c(Oc4ccccc4Cl)c3)CC2)=C(c2ccc(Cl)cc2)C1` [Example 188, 2-(2-chlorophenoxy)-4-(4-{[2-(4-chlorophenyl)-4,4-dimethylcyclohex-1-en-1-yl]methyl}piperazin-1-yl)-N-[(4-{[1-(cyclopropylmethyl)piperidin-4-yl]amino}-3-nitrophenyl)sulfonyl]benzamide] displayed a Ki of 0.073 nM.
`CN1CCC(Nc2ccc(S(=O)(=O)NC(=O)c3ccc(N4CCN(CC5=C(c6ccc(Cl)cc6)CC(C)(C)CC5)CC4)cc3Oc3cc(F)cc4[nH]ccc34)cc2[N+](=O)[O-])CC1` [Example 209, 4-(4-{[2-(4-chlorophenyl)-4,4-dimethylcyclohex-1-en-1-yl]methyl}piperazin-1-yl)-2-[(6-fluoro-1H-indol-4-yl)oxy]-N-({4-[(1-methylpiperidin-4-yl)amino]-3-nitrophenyl}sulfonyl)benzamide] yielded a Ki of less than 0.01 nM.
In the case of `Nc1ncc(Oc2cc(N3CCN(CC4=C(c5ccc(Cl)cc5)CCC5(CCN(C(CF)CF)CC5)C4)CC3)ccc2C(=O)NS(=O)(=O)c2ccc(NCC3CCOCC3)c([N+](=O)[O-])c2)cc1Cl` [Example 391, 2-[(6-amino-5-chloropyridin-3-yl)oxy]-4-[4-({9-(4-chlorophenyl)-3-[2-fluoro-1-(fluoromethyl)ethyl]-3-azaspiro[5.5]undec-8-en-8-yl}methyl)piperazin-1-yl]-N-({3-nitro-4-[(tetrahydro-2H-pyran-4-ylmethyl)amino]phenyl}sulfonyl)benzamide] it was less than 0.01 nM; in that of `CC1(C)CCC(CN2CCN(c3ccc(C(=O)NS(=O)(=O)c4ccc(NCC5CCOCC5)c([N+](=O)[O-])c4)c(Oc4cc(NC(=O)OC(C)(C)C)nc(NC(=O)OC(C)(C)C)c4)c3)CC2)=C(c2ccc(Cl)cc2)C1` [Example 373, 4-(4-{[2-(4-chlorophenyl)-4,4-dimethylcyclohex-1-en-1-yl]methyl}piperazin-1-yl)-2-[(2,6-Bis-tert-butoxycarbonylamino-pyridin-4-yl)oxy]-N-({3-nitro-4-[(tetrahydro-2H-pyran-4-ylmethyl)amino]phenyl}sulfonyl)benzamide], 1200 nM.
The compound `CC(=O)Nc1cccc(Oc2cc(N3CCN(Cc4ccccc4-c4ccc(Cl)cc4)CC3)ccc2C(=O)NS(=O)(=O)c2ccc(NCC3CCOCC3)c([N+](=O)[O-])c2)c1` [Example 17, 2-(3-(acetylamino)phenoxy)-4-(4-((4′-chloro-1,1′-biphenyl-2-yl)methyl)piperazin-1-yl)-N-((3-nitro-4-((tetrahydro-2H-pyran-4-ylmethyl)amino)phenyl)sulfonyl)benzamide] yielded an inhibition constant Ki of 5.58 nM.
`CN1CCN(Nc2ccc(S(=O)(=O)NC(=O)c3ccc(N4CCN(CC5=C(c6ccc(Cl)cc6)CC(C)(C)CC5)CC4)cc3Oc3cnc(N)c(Br)c3)cc2[N+](=O)[O-])CC1` [Example 359, 2-[(6-amino-5-bromopyridin-3-yl)oxy]-4-(4-{[2-(4-chlorophenyl)-4,4-dimethylcyclohex-1-en-1-yl]methyl}piperazin-1-yl)-N-({4-[(4-methylpiperazin-1-yl)amino]-3-nitrophenyl}sulfonyl)benzamide] yielded a Ki of 0.11 nM.
The same measure for `CC1(C)CCC(CN2CCN(c3ccc(C(=O)NS(=O)(=O)c4cnc(OCC5(F)CCOCC5)c(C#N)c4)c(Oc4cc5cc[nH]c5cc4F)c3)CC2)=C(c2ccc(Cl)cc2)C1` [Example 308, 4-(4-{[2-(4-chlorophenyl)-4,4-dimethylcyclohex-1-en-1-yl]methyl}piperazin-1-yl)-N-({5-cyano-6-[(4-fluorotetrahydro-2H-pyran-4-yl)methoxy]pyridin-3-yl}sulfonyl)-2-[(6-fluoro-1H-indol-5-yl)oxy]benzamide]: 0.04 nM; for `CN(C)CCc1ccc(Oc2cc(N3CCN(Cc4ccccc4-c4ccc(Cl)cc4)CC3)ccc2C(=O)NS(=O)(=O)c2ccc(NCC3CCOCC3)c([N+](=O)[O-])c2)cc1` [Example 87, 4-(4-((4′-chloro-1,1′-biphenyl-2-yl)methyl)piperazin-1-yl)-2-(4-(2-(dimethylamino)ethyl)phenoxy)-N-((3-nitro-4-((tetrahydro-2H-pyran-4-ylmethyl)amino)phenyl)sulfonyl)benzamide]: 264 nM; for `CC1(C)CC(c2ccc(Cl)cc2)=C(CN2CCN(c3ccc(C(=O)NS(=O)(=O)c4ccc(NCC5CCOCC5)c([N+](=O)[O-])c4)c(Oc4cc5cc[nH]c5cc4F)c3)CC2)CO1` [Example 277, 4-(4-{[4-(4-chlorophenyl)-6,6-dimethyl-5,6-dihydro-2H-pyran-3-yl]methyl}piperazin-1-yl)-2-[(6-fluoro-1H-indol-5-yl)oxy]-N-({3-nitro-4-[(tetrahydro-2H-pyran-4-ylmethyl)amino]phenyl}sulfonyl)benzamide]: 0.017 nM.
